Values quoted from earlier work as cited in patent US20220333071A1, “METHODS OF MAKING, EXPANDING AND PURIFYING MIDBRAIN DOPAMINERGIC PROGENITOR CELLS” (BrainXell, Inc., priority 2021, published 2022).

Legend:
KDR (VEGFR-2) = KDR (VEGFR-2) (Homo sapiens, UniProt P35968)
ALK-1 = ALK-1 (Homo sapiens, UniProt P37023); settings: in vitro kinase assays
ALK-3 = ALK-3 (Homo sapiens, UniProt P36894); settings: in vitro kinase assays
[1] = test system: BMP4-induced phosphorylation of Smads 1, 5 and 8; settings: HEK293 cells
PDGFRβ = PDGFRβ (Homo sapiens, UniProt P09619)
Chain of PDGFRβ (P09619 33-1106, species assumed): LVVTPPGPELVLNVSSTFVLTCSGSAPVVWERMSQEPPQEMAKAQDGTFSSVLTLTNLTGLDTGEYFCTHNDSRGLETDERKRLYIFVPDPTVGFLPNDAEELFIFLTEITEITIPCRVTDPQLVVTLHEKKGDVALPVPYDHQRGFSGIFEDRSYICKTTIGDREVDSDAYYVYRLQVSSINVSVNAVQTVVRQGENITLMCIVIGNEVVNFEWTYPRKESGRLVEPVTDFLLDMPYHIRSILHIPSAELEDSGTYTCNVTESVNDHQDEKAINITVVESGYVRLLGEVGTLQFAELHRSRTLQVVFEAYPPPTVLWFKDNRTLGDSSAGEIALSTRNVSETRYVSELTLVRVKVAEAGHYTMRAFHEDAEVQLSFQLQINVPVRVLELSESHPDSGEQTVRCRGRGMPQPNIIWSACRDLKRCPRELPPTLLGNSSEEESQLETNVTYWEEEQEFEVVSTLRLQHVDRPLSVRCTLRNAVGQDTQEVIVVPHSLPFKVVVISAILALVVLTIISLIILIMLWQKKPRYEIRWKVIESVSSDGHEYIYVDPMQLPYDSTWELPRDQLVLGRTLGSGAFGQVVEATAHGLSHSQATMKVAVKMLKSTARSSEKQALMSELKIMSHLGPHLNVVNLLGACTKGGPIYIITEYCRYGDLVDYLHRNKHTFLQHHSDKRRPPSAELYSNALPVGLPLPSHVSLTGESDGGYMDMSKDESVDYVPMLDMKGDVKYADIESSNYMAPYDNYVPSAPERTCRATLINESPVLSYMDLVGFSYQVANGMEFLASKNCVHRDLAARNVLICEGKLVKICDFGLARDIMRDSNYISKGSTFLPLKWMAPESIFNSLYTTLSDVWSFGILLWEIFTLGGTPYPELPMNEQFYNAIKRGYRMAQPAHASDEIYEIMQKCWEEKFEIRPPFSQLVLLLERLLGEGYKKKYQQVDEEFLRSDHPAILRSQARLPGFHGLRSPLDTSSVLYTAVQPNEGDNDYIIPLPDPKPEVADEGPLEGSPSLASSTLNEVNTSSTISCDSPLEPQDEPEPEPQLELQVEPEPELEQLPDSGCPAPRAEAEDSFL

ALK5 = molecular target: T1, ALK5 (Homo sapiens, UniProt P36897)
T1 sequence (P36897 34-503): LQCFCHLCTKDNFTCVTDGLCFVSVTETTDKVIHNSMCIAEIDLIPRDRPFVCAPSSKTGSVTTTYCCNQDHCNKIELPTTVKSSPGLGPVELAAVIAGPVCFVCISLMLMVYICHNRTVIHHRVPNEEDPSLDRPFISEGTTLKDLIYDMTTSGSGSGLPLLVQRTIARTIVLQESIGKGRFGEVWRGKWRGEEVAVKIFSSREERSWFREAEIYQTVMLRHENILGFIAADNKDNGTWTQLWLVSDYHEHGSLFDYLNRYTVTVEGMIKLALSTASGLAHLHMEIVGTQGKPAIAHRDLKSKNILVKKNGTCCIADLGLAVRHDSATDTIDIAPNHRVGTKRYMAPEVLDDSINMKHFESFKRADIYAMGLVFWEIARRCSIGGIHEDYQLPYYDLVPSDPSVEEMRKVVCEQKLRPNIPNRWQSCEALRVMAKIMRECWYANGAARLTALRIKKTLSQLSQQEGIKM

[2] = test system: Wnt-mediated transcription; settings: read-out: IC50, inhibition of Wnt-mediated transcription

Chain of KDR (VEGFR-2) (P35968 20-1356, species assumed): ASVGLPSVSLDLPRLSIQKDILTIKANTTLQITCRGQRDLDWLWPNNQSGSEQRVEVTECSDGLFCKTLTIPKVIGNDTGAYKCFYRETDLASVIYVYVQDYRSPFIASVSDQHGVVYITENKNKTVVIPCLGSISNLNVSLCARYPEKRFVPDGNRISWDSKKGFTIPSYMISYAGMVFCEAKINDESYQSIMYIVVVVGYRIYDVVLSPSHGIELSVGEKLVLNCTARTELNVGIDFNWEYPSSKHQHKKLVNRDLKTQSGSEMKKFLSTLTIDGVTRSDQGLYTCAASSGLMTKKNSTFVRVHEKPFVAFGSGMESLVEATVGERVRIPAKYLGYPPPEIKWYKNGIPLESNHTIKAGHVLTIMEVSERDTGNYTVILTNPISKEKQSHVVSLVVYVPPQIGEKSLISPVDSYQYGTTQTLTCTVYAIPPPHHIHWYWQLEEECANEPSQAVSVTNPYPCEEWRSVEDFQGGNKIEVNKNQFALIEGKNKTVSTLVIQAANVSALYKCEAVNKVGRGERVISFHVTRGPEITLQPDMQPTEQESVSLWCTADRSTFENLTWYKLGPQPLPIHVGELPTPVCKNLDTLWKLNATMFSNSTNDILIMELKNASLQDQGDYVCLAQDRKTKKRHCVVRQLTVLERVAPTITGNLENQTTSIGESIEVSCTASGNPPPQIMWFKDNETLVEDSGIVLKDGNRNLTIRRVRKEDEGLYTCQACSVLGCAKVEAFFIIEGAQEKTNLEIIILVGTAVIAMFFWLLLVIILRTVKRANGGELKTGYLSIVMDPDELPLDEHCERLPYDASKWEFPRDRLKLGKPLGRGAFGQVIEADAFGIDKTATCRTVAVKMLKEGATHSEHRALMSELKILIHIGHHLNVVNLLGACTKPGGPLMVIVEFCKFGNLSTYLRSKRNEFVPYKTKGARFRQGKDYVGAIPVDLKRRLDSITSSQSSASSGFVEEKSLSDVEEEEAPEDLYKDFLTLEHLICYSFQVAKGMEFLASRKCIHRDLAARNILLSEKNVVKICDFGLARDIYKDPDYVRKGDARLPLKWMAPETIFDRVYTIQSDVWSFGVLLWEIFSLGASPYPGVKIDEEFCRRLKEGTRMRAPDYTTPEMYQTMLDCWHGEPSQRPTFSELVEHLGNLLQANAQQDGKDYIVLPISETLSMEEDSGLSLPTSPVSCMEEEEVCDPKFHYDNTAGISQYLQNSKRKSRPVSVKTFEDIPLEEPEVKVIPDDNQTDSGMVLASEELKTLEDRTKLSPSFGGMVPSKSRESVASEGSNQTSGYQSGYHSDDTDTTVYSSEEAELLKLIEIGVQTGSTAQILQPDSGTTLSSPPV
Chain of ALK-3 (P36894 24-532, species assumed): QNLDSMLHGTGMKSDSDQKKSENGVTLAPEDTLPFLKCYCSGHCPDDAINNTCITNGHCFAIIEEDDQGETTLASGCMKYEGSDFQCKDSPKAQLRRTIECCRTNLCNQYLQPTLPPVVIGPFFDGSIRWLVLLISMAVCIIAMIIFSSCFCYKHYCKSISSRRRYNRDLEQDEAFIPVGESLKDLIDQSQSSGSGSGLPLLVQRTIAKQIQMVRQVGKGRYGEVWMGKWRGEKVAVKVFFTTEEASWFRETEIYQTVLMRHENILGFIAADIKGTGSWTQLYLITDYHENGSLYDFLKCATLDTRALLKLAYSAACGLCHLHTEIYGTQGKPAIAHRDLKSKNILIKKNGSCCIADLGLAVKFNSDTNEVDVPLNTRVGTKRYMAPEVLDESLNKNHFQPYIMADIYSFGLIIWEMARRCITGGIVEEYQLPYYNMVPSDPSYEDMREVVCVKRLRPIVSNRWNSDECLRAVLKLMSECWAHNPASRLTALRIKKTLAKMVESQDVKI
Chain of ALK-1 (P37023 22-503, species assumed): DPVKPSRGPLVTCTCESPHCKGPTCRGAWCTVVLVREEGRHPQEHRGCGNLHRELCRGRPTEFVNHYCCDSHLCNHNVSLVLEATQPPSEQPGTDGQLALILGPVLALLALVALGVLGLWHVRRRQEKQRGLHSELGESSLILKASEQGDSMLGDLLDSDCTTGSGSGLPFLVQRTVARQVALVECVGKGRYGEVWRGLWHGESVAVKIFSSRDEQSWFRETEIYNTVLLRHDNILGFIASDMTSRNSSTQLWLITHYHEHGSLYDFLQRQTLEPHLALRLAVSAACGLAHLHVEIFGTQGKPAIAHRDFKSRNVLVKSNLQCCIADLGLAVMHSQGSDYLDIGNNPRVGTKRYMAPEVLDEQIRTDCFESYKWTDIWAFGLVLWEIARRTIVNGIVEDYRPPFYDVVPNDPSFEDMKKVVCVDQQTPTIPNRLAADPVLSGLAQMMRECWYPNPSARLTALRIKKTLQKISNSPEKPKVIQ

CC(C)Oc1ccc(-c2cnc3c(-c4ccnc5ccccc45)cnn3c2)cc1 [DMH-1, 4-[6-[4-(1-Methylethoxy)phenyl]pyrazolo[1,5-a]pyrimidin-3-yl]-quinoline]
inhibition of KDR (VEGFR-2) (KDR (VEGFR-2)): no significant inhibition | selectivity for ALK-2 over ALK-1 (ALK-1): 6 fold | selectivity for ALK-2 over ALK-3 (ALK-3): 19 fold | inhibition of AMPK (AMPK): no significant inhibition | BMP4-induced phosphorylation of Smads 1, 5 and 8 [1]: Blocks | inhibition of PDGFRβ (PDGFRβ): no significant inhibition | inhibition of ALK5 (ALK5): no significant inhibition

Cc1c[nH]c(-c2cnc(NCCNc3ccc(C#N)cn3)nc2-c2ccc(Cl)cc2Cl)n1 [CHIR99021, 6-(2-(4-(2,4-dichlorophenyl)-5-(4-methyl-1H-imidazol-2-yl)pyrimidin-2-ylamino)ethylamino) nicotinonitrile]
IC50 values against rodent GSK3-β homologs (rodent GSK3-β homologs): nanomolar

Cc1cc(-c2ccc(CC(=O)Nc3ccc(-c4cccnc4)cc3)cc2)ccn1 [Wnt-059, 4-(2-Methyl-4-pyridinyl)-N-[4-(3-pyridinyl)phenyl]benzeneacetamide]
IC50 [2]: 0.074 nM
